The source of these data is US20260193293A1, “PEPTIDES CAPABLE OF INHIBITING PROTEIN-PROTEIN INTERACTIONS AT GABAB1A SUBUNIT AND USES THEREOF” (UNIVERSITY OF COPENHAGEN, priority 2022, published 2026).

The target in this assay is Sushi domains (SD1/2) protein. Put plainly: Fluorescence polarization (FP) competition assay with AJAP-1probe, calculated Ki. The format is binding. The following applies: read-out: Ki (nM) mean ± SEM. The procedure, abridged: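 Competition against 25 nM TAMRA-labelled peptide probe binding SD1/2, in PBS pH 7.4 with 1% BSA at rt, read at 530/580 nm. IC50 from sigmoidal dose-response fits, at least triplicate; Ki calculated from IC50 using probe Kd from saturation binding.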

The mark [1] stands for this setting: Table 6, elongation and truncation scan of PIANP binding epitope.
[2] abbreviates: Table 9, Ala-, D-amino acids and N-methylation scans of PIANPWT.

SMILES strings stand for the structures. Read-outs that look alike come from different tables or passages of the source. Non-standard residues stand in square brackets, D forms with d. Residues, ends and D or L forms follow the SMILES beside them. NMeD = CN[C@@H](CC(=O)O)C(=O)O

On to `CC(=O)N[C@@H](CCC(=O)O)C(=O)N(C)[C@@H](CC(=O)O)C(=O)N[C@@H](CC(=O)O)C(=O)N[C@@H](CO)C(=O)N[C@@H](CC(=O)O)C(=O)N[C@H](C(=O)N[C@@H](Cc1c[nH]c2ccccc12)C(=O)N[C@@H](Cc1c[nH]c2ccccc12)C(=O)NCC(=O)NCC(=O)N[C@@H](C)C(=O)N[C@@H](CC(=O)O)C(=O)N[C@H](C(=O)N[C@@H](CC(=O)O)C(N)=O)[C@@H](C)O)C(C)C` (Ac-E[NMeD]DSDVWWGGADTD-NH2), for which, where the note is “Table 7, Ala-, D-amino acids and N-methylation scans of APPWT”, the Ki is 655 ± 24 nM.

Regarding `CC(=O)NCC(=O)NCC(=O)N[C@@H](C)C(=O)N[C@@H](CC(=O)O)C(=O)N[C@H](C(=O)N[C@@H](CC(=O)O)C(=O)N[C@@H](Cc1ccc(O)cc1)C(=O)N[C@@H](C)C(=O)N[C@@H](CC(=O)O)C(N)=O)[C@@H](C)O` (Ac-GGADTDYAD-NH2), the Ki (Table 4, truncation and elongation scans of APP epitope) was above 62500 nM.

In the case of `CC[C@H](C)[C@H](NC(C)=O)C(=O)N[C@H](C(=O)N[C@@H](Cc1c[nH]c2ccccc12)C(=O)NCC(=O)N1CCC[C@H]1C(=O)N[C@H](C(=O)N[C@H](C(=O)N[C@@H](CO)C(=O)N[C@@H](CCCNC(=N)N)C(=O)N[C@@H](CCC(=O)O)C(=O)N[C@@H](CC(=O)O)C(=O)NCC(N)=O)C(C)C)[C@@H](C)O)C(C)C` (Ac-IVWGPTVSREDG-NH2), the Ki under setting [1] was 15700 ± 210 nM.

Regarding `CC(=O)N[C@@H](CCCCN)C(=O)N[C@@H](CC(=O)O)C(=O)N[C@@H](CC(=O)O)C(=O)N[C@@H](CO)C(=O)N[C@@H](CC(=O)O)C(=O)N[C@H](C(=O)N[C@@H](Cc1c[nH]c2ccccc12)C(=O)N[C@@H](Cc1c[nH]c2ccccc12)C(=O)NCC(=O)NCC(=O)N[C@@H](C)C(=O)N[C@@H](CC(=O)O)C(=O)N[C@H](C(=O)N[C@@H](CC(=O)O)C(N)=O)[C@@H](C)O)C(C)C` (Ac-KDDSDVWWGGADTD-NH2), the Ki (Table 10, deep mutational scanning validation variants of APPWT) is 1520 ± 53 nM.

In the case of `CC[C@H](C)[C@H](NC(=O)[C@H](C)NC(=O)[C@H](Cc1c[nH]c2ccccc12)NC(=O)[C@@H]1CCCN1C(=O)[C@H](Cc1ccc(O)cc1)NC(=O)[C@H](CCC(N)=O)NC(=O)[C@H](CO)NC(=O)[C@H](CO)NC(=O)[C@@H]1CCCN1C(C)=O)C(=O)N[C@H](C(=O)N[C@@H](Cc1c[nH]c2ccccc12)C(=O)NCC(=O)N1CCC[C@H]1C(=O)N[C@H](C(=O)N[C@H](C(=O)N[C@@H](CO)C(=O)N[C@@H](CCCNC(=N)N)C(=O)N[C@@H](CCC(=O)O)C(=O)N[C@@H](CC(=O)O)C(=O)NCC(N)=O)C(C)C)[C@@H](C)O)C(C)C` (Ac-PSSQYPWAIVWGPTVSREDG-NH2), the Ki under setting [1] was above 62500 nM.

`CC[C@H](C)[C@H](NC(=O)[C@H](Cc1ccccc1)NC(=O)[C@H](CCC(=O)O)NC(=O)[C@@H](NC(=O)[C@H](CCC(=O)O)NC(=O)[C@@H](NC(=O)[C@@H](NC(=O)[C@@H]1CCCN1C(C)=O)[C@@H](C)O)[C@@H](C)O)[C@@H](C)O)C(=O)N[C@@H](C)C(=O)N[C@@H](Cc1c[nH]c2ccccc12)C(=O)NCC(=O)N1CCC[C@H]1C(=O)N[C@H](C(=O)NCC(=O)N[C@@H](CC(=O)O)C(=O)N[C@@H](CCC(=O)O)C(=O)N[C@@H](CC(=O)O)C(N)=O)[C@@H](C)O` (Ac-PTTETEFIAWGPTGDED-NH2): the Ki (Table 5, elongation and truncation scan of AJAP-1 binding epitope) is 30 ± 0.5 nM.

`CC[C@H](C)[C@H](NC(=O)[C@H](C)NC(=O)[C@H](Cc1c[nH]c2ccccc12)NC(=O)[C@@H]1CCCN1C(C)=O)C(=O)N[C@H](C(=O)N[C@@H](Cc1c[nH]c2ccccc12)C(=O)NCC(=O)N1CCC[C@H]1C(N)=O)C(C)C` (Ac-PWAIVWGP-NH2): under setting [1], the Ki was 597 ± 7 nM.

With `CC[C@H](C)[C@H](NC(=O)[C@H](C)NC(=O)[C@H](Cc1c[nH]c2ccccc12)NC(=O)[C@@H]1CCCN1C(C)=O)C(=O)N[C@H](C(=O)N[C@@H](Cc1c[nH]c2ccccc12)C(=O)NCC(=O)N1CCC[C@H]1C(=O)N[C@H](C(N)=O)[C@@H](C)O)C(C)C` (Ac-PWAIVWGPT-NH2), under setting [1], the Ki is 716 ± 6 nM.

For the molecule `CC[C@H](C)[C@H](NC(=O)[C@H](C)NC(=O)[C@H](Cc1c[nH]c2ccccc12)NC(=O)[C@@H]1CCCN1C(C)=O)C(=O)N[C@H](C(=O)N[C@@H](Cc1c[nH]c2ccccc12)C(=O)NCC(=O)N1CCC[C@H]1C(=O)N[C@H](C(=O)N[C@H](C(N)=O)C(C)C)[C@@H](C)O)C(C)C` (Ac-PWAIVWGPTV-NH2), the Ki under setting [1] was 561 ± 21 nM.

For the molecule `CC[C@H](C)[C@H](NC(=O)[C@H](C)NC(=O)[C@H](Cc1c[nH]c2ccccc12)NC(=O)[C@@H]1CCCN1C(C)=O)C(=O)N[C@H](C(=O)N[C@@H](Cc1c[nH]c2ccccc12)C(=O)NCC(=O)N1CCC[C@H]1C(=O)N[C@H](C(=O)N[C@H](C(=O)N[C@@H](CO)C(N)=O)C(C)C)[C@@H](C)O)C(C)C` (Ac-PWAIVWGPTVS-NH2), under setting [1], the Ki is 463 ± 10 nM.

Consider `CC[C@H](C)[C@H](NC(=O)[C@H](C)NC(=O)[C@H](Cc1c[nH]c2ccccc12)NC(=O)[C@@H]1CCCN1C(C)=O)C(=O)N[C@H](C(=O)N[C@@H](Cc1c[nH]c2ccccc12)C(=O)NCC(=O)N1CCC[C@H]1C(=O)N[C@H](C(=O)N[C@H](C(=O)N[C@@H](CO)C(=O)N[C@@H](CCCNC(=N)N)C(N)=O)C(C)C)[C@@H](C)O)C(C)C` (Ac-PWAIVWGPTVSR-NH2), for which the Ki under setting [1] is 433 ± 2 nM.

As for `CC[C@H](C)[C@H](NC(=O)[C@H](C)NC(=O)[C@H](Cc1c[nH]c2ccccc12)NC(=O)[C@@H]1CCCN1C(C)=O)C(=O)N[C@H](C(=O)N[C@@H](Cc1c[nH]c2ccccc12)C(=O)NCC(=O)N1CCC[C@H]1C(=O)N[C@H](C(=O)N[C@H](C(=O)N[C@@H](CO)C(=O)N[C@@H](CCCNC(=N)N)C(=O)N[C@@H](C)C(=O)N[C@@H](CC(=O)O)C(N)=O)C(C)C)[C@@H](C)O)C(C)C` (Ac-PWAIVWGPTVSRAD-NH2), the Ki under setting [2] is 600 ± 22 nM.

Take `CC[C@H](C)[C@H](NC(=O)[C@H](C)NC(=O)[C@H](Cc1c[nH]c2ccccc12)NC(=O)[C@@H]1CCCN1C(C)=O)C(=O)N[C@H](C(=O)N[C@@H](Cc1c[nH]c2ccccc12)C(=O)NCC(=O)N1CCC[C@H]1C(=O)N[C@H](C(=O)N[C@H](C(=O)N[C@@H](CO)C(=O)N[C@@H](CCCNC(=N)N)C(=O)N[C@@H](CCC(=O)O)C(N)=O)C(C)C)[C@@H](C)O)C(C)C` (Ac-PWAIVWGPTVSRE-NH2): the Ki under setting [1] was 650 ± 9 nM.

As to `CC[C@H](C)[C@H](NC(=O)[C@H](C)NC(=O)[C@H](Cc1c[nH]c2ccccc12)NC(=O)[C@@H]1CCCN1C(C)=O)C(=O)N[C@H](C(=O)N[C@@H](Cc1c[nH]c2ccccc12)C(=O)NCC(=O)N1CCC[C@H]1C(=O)N[C@H](C(=O)N[C@H](C(=O)N[C@@H](CO)C(=O)N[C@@H](CCCNC(=N)N)C(=O)N[C@@H](CCC(=O)O)C(=O)N[C@@H](C)C(N)=O)C(C)C)[C@@H](C)O)C(C)C` (Ac-PWAIVWGPTVSREA-NH2), the Ki under setting [2] is 572 ± 9 nM.

On to `CC[C@H](C)[C@H](NC(=O)[C@H](C)NC(=O)[C@H](Cc1c[nH]c2ccccc12)NC(=O)[C@@H]1CCCN1C(C)=O)C(=O)N[C@H](C(=O)N[C@@H](Cc1c[nH]c2ccccc12)C(=O)NCC(=O)N1CCC[C@H]1C(=O)N[C@H](C(=O)N[C@H](C(=O)N[C@@H](CO)C(=O)N[C@@H](CCCNC(=N)N)C(=O)N[C@@H](CCC(=O)O)C(=O)N[C@@H](CC(=O)O)C(=O)NCC(=O)NCC(N)=O)C(C)C)[C@@H](C)O)C(C)C` (Ac-PWAIVWGPTVSREDGG-NH2), for which the Ki under setting [1] is 561 ± 21 nM.

For `CC[C@H](C)[C@H](NC(=O)[C@H](C)NC(=O)[C@H](Cc1c[nH]c2ccccc12)NC(=O)[C@@H]1CCCN1C(C)=O)C(=O)N[C@H](C(=O)N[C@@H](Cc1c[nH]c2ccccc12)C(=O)NCC(=O)N1CCC[C@H]1C(=O)N[C@H](C(=O)N[C@H](C(=O)N[C@@H](CO)C(=O)N[C@@H](CCCNC(=N)N)C(=O)N[C@@H](CCC(=O)O)C(=O)N[C@@H](CC(=O)O)C(=O)NCC(=O)NCC(=O)N[C@@H](CC(=O)O)C(N)=O)C(C)C)[C@@H](C)O)C(C)C` (Ac-PWAIVWGPTVSREDGGD-NH2), the Ki under setting [1] was 716 ± 6 nM.
